Results: patent publication US7402548B2, “Benzoxazole compounds, process for producing the same and herbicides” (Kyoyu Agri Co., Ltd., priority 2000, dated 2008)

How the values were obtained:
arrowhead = test: Herbicidal test for paddy field; format: in vivo, Sagittaria pygmaea; conditions: 500 g/ha, dropwise addition to paddy water at 1.5 leaf stage of barnyard grass; glass house 25° C., 3 weeks; rank 0-5 vs non-treated district
Method: Wagner pots, each having an area of 1/5000 are, were packed with Ube soil (alluvial soil) and planted with seeds or tubers of young rice plant, barnyard grass, bulrush, Cyperus serotinus Rottb., arrowhead and monochoria. Then, the pots were filled with water to a depth of 3 cm.
Each wettable powder of the desired Compounds (I) shown in Tables 1 to 21, 24, 25, 28 and 29 prepared in accordance with Example 2 was diluted with water containing a surfactant (0.05%) and subjected to dropwise addition treatment by using pipet so that an effective concentration of the compound (I) in each herbicide became 500 g/ha at 1.5 leaf stage of barnyard grass.
(§1) These plants were controlled in a glass house at an average temperature of 25° C. for 3 weeks, and then herbicidal effects thereof were investigated.
(§2) The herbicidal effects are evaluated according to the following 6 ranks as compared with non-treated district. (0: normal development, 1: Less damaged, 2: Slightly damaged, 3: Moderately damaged, 4: Severely damaged, 5: All killed). Incidentally, “-” in the column means not investigated.

velvetleaf [1] = test: Foliar spread test for upland field; format: in vivo, Abutilon theophrasti; set-up: key: 0 = normal development, 5 = all killed (6 ranks vs. untreated); conditions: foliar spray, 500 ppm, 3 weeks, glass house 25° C.
Summary of the method: (§3)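 Seeds were sown in volcanic ash soil in Wagner pots and grown about 2 weeks in a glass house at an average 25° C. Wettable-powder formulations diluted to 500 ppm in water with 0.5% surfactant were sprayed uniformly over the plants. After 3 further weeks at 25° C, damage was scored 0 (normal) to 5 (all killed) against untreated plants.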

barnyard grass [2] = test: Soil treatment test for upland field; format: in vivo, Eschinochloa crusgalli; set-up: key: 0 = normal development, 5 = all killed; conditions: 500 g/ha, 3 weeks, glass house 25° C.
Summary of the method: (§4)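 Pre-emergence soil spray, 500 g/ha, WP formulation in water + 0.05% surfactant; alluvial soil; glasshouse, avg 25° C, 3 wk. Score 0 (normal) to 5 (all killed) vs untreated.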

blackgrass [3] = test: Foliar spread test for upland field; format: in vivo, Alopecurus aegualis; set-up: key: 0 = normal development, 5 = all killed (6 ranks vs. untreated); conditions: foliar spray, 500 ppm, 3 weeks, glass house 25° C.
Summary of the method: as §3

livid amaranth [4] = test: Soil treatment test for upland field; format: in vivo, Amaranthus lividus; set-up: key: 0 = normal development, 5 = all killed; conditions: 500 g/ha, 3 weeks, glass house 25° C.
Summary of the method: as §4

green foxtail [5] = test: Foliar spread test for upland field; format: in vivo, Setaria viridis; set-up: key: 0 = normal development, 5 = all killed (6 ranks vs. untreated); conditions: foliar spray, 500 ppm, 3 weeks, glass house 25° C.
Summary of the method: as §3

Large crabgrass [6] = test: Soil treatment test for upland field; format: in vivo, Digitaria adscendens; set-up: key: 0 = normal development, 5 = all killed; conditions: 500 g/ha, 3 weeks, glass house 25° C.
Summary of the method: as §4

livid amaranth [7] = test: Foliar spread test for upland field; format: in vivo, Amaranthus lividus; set-up: key: 0 = normal development, 5 = all killed (6 ranks vs. untreated); conditions: foliar spray, 500 ppm, 3 weeks, glass house 25° C.
Summary of the method: as §3

velvetleaf [8] = test: Soil treatment test for upland field; format: in vivo, Abutilon theophrasti; set-up: key: 0 = normal development, 5 = all killed; conditions: 500 g/ha, 3 weeks, glass house 25° C.
Summary of the method: as §4

bulrush = test: Herbicidal test for paddy field; format: in vivo, Scrips juncoides; conditions: 500 g/ha, dropwise addition to paddy water at 1.5 leaf stage of barnyard grass; glass house 25° C., 3 weeks; rank 0-5 vs non-treated district
Summary of the method: (§5)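 Wettable-powder formulations in water with 0.05% surfactant were dripped onto flooded (3 cm) Ube alluvial-soil pots at 500 g/ha, applied at barnyard grass 1.5-leaf stage. Plants were kept in a glasshouse at 25° C. for 3 weeks. Damage was scored 0 (normal) to 5 (all killed) versus untreated plants.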

[9] = system: common Cocklebur (Xanthium strumarium); test: Soil treatment test for upland field; format: in vivo; conditions: 500 g/ha, 3 weeks, glass house 25° C.
Method: as §2
(§6) Wagner pots, each having an area of 1/5000 are, were packed with Ube soil (alluvial soil), and then each seed of corn, soybean, cotton, wheat, solgum, sugar beat, Large crabgrass, barnyard grass, green foxtail, blackgrass, annual bluegrass, common lambsquarters, livid amaranth, velvetleaf, morning glory, common Cocklebur (Xanthium strumarium) and sicklepod (Cassia obtusifolia) were planted and covered with soil.
(§7) Each wettable powder of the desired compounds (I) shown in Tables 1 to 21, 24, 25, 28 and 29 prepared in accordance with Example 2 was diluted with water containing a surfactant (0.05%) and uniformly sprayed on the surface of each soil so that an effective concentration of the compound (I) in each herbicide became 500 g/ha.
as §1
(§8) The herbicidal effects were evaluated according to the evaluation method described in the above (1).

[10] = system: sicklepod (Cassia obtusifolia); test: Soil treatment test for upland field; format: in vivo; conditions: 500 g/ha, 3 weeks, glass house 25° C.
Method: as §2, §6, §7, §1, §8

Large crabgrass [11] = test: Foliar spread test for upland field; format: in vivo, Digitaria adscendens; set-up: key: 0 = normal development, 5 = all killed (6 ranks vs. untreated); conditions: foliar spray, 500 ppm, 3 weeks, glass house 25° C.
Summary of the method: as §3

common lambsquarters [12] = test: Soil treatment test for upland field; format: in vivo, Chenopodium album; set-up: key: 0 = normal development, 5 = all killed; conditions: 500 g/ha, 3 weeks, glass house 25° C.
Summary of the method: as §4

morning glory [13] = test: Soil treatment test for upland field; format: in vivo, Ipomoea spps.; set-up: key: 0 = normal development, 5 = all killed; conditions: 500 g/ha, 3 weeks, glass house 25° C.
Summary of the method: as §4

barnyardgrjass = test: Foliar spread test for upland field; format: in vivo, Eschinochloa crusgalli; set-up: key: 0 = normal development, 5 = all killed (6 ranks vs. untreated); conditions: foliar spray, 500 ppm, 3 weeks, glass house 25° C.
Summary of the method: as §3

Cassia obtusifolia = test: Foliar spread test for upland field; format: in vivo; set-up: key: 0 = normal development, 5 = all killed; conditions: foliar spray, 500 ppm, 3 weeks, glass house 25° C.
Method: as §2
(§9) Wagner pots, each having an area of 1/5000 are, were packed with volcanic ash soil and then each seed of corn, soybean, cotton, wheat, solgum, sugar beat, Large crabgrass, barnyardgrjass, green foxtail, blackgrass, annual bluegrass, common lambsquarters, livid amaranth, velvetleaf, morning glory, Xanthium pensylvanicum and Cassia obtusifolia was planted, covered with soil and grown in a glass house at an average temperature of 25° C. for about 2 weeks.
(§10) Each wettable powder of the desired compounds (I) shown in Tables 1 to 21, 24, 25, 28 and 29 prepared in accordance with Example 2 was diluted to 500 ppm with water containing a surfactant (0.5%) and then uniformly sprayed on the above respective plants.
(§11) After these plants were controlled in a glass house at an average temperature of 25° C. for 3 weeks, the herbicidal effects thereof were investigated.
as §8

Xanthium pensylvanicum = test: Foliar spread test for upland field; format: in vivo; set-up: key: 0 = normal development, 5 = all killed; conditions: foliar spray, 500 ppm, 3 weeks, glass house 25° C.
Method: as §2, §9, §10, §11, §8

annual bluegrass [14] = test: Soil treatment test for upland field; format: in vivo, Poa annua; set-up: key: 0 = normal development, 5 = all killed; conditions: 500 g/ha, 3 weeks, glass house 25° C.
Summary of the method: as §4

blackgrass [15] = test: Soil treatment test for upland field; format: in vivo, Alopecurus aegualis; set-up: key: 0 = normal development, 5 = all killed; conditions: 500 g/ha, 3 weeks, glass house 25° C.
Summary of the method: as §4

barnyard grass [16] = test: Herbicidal test for paddy field; format: in vivo, Eschinochloa crusgalli; conditions: 500 g/ha, dropwise addition to paddy water at 1.5 leaf stage of barnyard grass; glass house 25° C., 3 weeks; rank 0-5 vs non-treated district
Summary of the method: as §5

annual bluegrass [17] = test: Foliar spread test for upland field; format: in vivo, Poa annua; set-up: key: 0 = normal development, 5 = all killed (6 ranks vs. untreated); conditions: foliar spray, 500 ppm, 3 weeks, glass house 25° C.
Summary of the method: as §3

morning glory [18] = test: Foliar spread test for upland field; format: in vivo, Ipomoea spps.; set-up: key: 0 = normal development, 5 = all killed (6 ranks vs. untreated); conditions: foliar spray, 500 ppm, 3 weeks, glass house 25° C.
Summary of the method: as §3

green foxtail [19] = test: Soil treatment test for upland field; format: in vivo, Setaria viridis; set-up: key: 0 = normal development, 5 = all killed; conditions: 500 g/ha, 3 weeks, glass house 25° C.
Summary of the method: as §4

sugar beat [20] = test: Foliar spread test for upland field; format: in vivo; set-up: key: 0 = normal development, 5 = all killed (6 ranks vs. untreated); conditions: foliar spray, 500 ppm, 3 weeks, glass house 25° C.
Summary of the method: as §3

corn [21] = test: Foliar spread test for upland field; format: in vivo; set-up: key: 0 = normal development, 5 = all killed (6 ranks vs. untreated); conditions: foliar spray, 500 ppm, 3 weeks, glass house 25° C.
Summary of the method: as §3

cotton = test: Foliar spread test for upland field; format: in vivo; set-up: key: 0 = normal development, 5 = all killed (6 ranks vs. untreated); conditions: foliar spray, 500 ppm, 3 weeks, glass house 25° C.
Summary of the method: as §3

solgum [22] = test: Foliar spread test for upland field; format: in vivo; set-up: key: 0 = normal development, 5 = all killed (6 ranks vs. untreated); conditions: foliar spray, 500 ppm, 3 weeks, glass house 25° C.
Summary of the method: as §3

wheat [23] = test: Foliar spread test for upland field; format: in vivo; set-up: key: 0 = normal development, 5 = all killed (6 ranks vs. untreated); conditions: foliar spray, 500 ppm, 3 weeks, glass house 25° C.
Summary of the method: as §3

soybean = test: Foliar spread test for upland field; format: in vivo; set-up: key: 0 = normal development, 5 = all killed (6 ranks vs. untreated); conditions: foliar spray, 500 ppm, 3 weeks, glass house 25° C.
Summary of the method: as §3

common lambsquarters [24] = test: Foliar spread test for upland field; format: in vivo, Chenopodium album; set-up: key: 0 = normal development, 5 = all killed (6 ranks vs. untreated); conditions: foliar spray, 500 ppm, 3 weeks, glass house 25° C.
Summary of the method: as §3

sugar beat [25] = test: Soil treatment test for upland field; format: in vivo; set-up: key: 0 = normal development, 5 = all killed; conditions: 500 g/ha, 3 weeks, glass house 25° C.
Summary of the method: as §4

corn [26] = test: Soil treatment test for upland field; format: in vivo; set-up: key: 0 = normal development, 5 = all killed; conditions: 500 g/ha, 3 weeks, glass house 25° C.
Summary of the method: as §4

solgum [27] = test: Soil treatment test for upland field; format: in vivo; set-up: key: 0 = normal development, 5 = all killed; conditions: 500 g/ha, 3 weeks, glass house 25° C.
Summary of the method: as §4

wheat [28] = test: Soil treatment test for upland field; format: in vivo; set-up: key: 0 = normal development, 5 = all killed; conditions: 500 g/ha, 3 weeks, glass house 25° C.
Summary of the method: as §4

Cyperus serotinus Rottb. = test: Herbicidal test for paddy field; format: in vivo; conditions: 500 g/ha, dropwise addition to paddy water at 1.5 leaf stage of barnyard grass; glass house 25° C., 3 weeks; rank 0-5 vs non-treated district
Summary of the method: as §5

SMILES	Effects Arrowhead (arrowhead)	Effects Velvetleaf (velvetleaf [1])	Effects Barnyardgrass (barnyard grass [2])	Effects Blackgrass (blackgrass [3])	Effects Green foxtail (green foxtail [5])	Effects Large crabgrass (Large crabgrass [6])	Effects Livid amaranth (livid amaranth [7])	Effects Velvetleaf (velvetleaf [8])	Effects Bulrush (bulrush)	Effects Sicklepod [10]	Effects Large crabgrass (Large crabgrass [11])	Effects Common lambsquarters (common lambsquarters [12])	Effects Morning glory (morning glory [13])	Effects Barnyardgrass (barnyardgrjass)	Effects Sicklepod (Cassia obtusifolia)	Effects Common Cocklebur (Xanthium pensylvanicum)	Effects Annual bluegrass (annual bluegrass [14])	Effects Blackgrass (blackgrass [15])	Effects Barnyardgrass (barnyard grass [16])	Effects Annual bluegrass (annual bluegrass [17])	further results
Fc1ccc2oc(-c3cccc(Oc4cccc(C(F)(F)F)c4)n3)nc2c1 [I-a-2]	1	4	4	3	5	5	5	5	3	3	4	5	5	3	4	4	5	5	4	4	Effects Livid amaranth (livid amaranth [4]): 5; Effects Common Cocklebur [9]: 3; Effects Morning glory (morning glory [18]): 5; Effects Green foxtail (green foxtail [19]): 5; Effects Sugar beat (sugar beat [20]): 4; Effects Corn (corn [21]): 2; Effects Sotton (cotton): 4; Effects Solgum (solgum [22]): 2; Effects Wheat (wheat [23]): 2; Effects Soybean (soybean): 3; Effects Common lambsquarters (common lambsquarters [24]): 5; Effects Sugar beat (sugar beat [25]): 5; Effects Corn (corn [26]): 2; Effects Solgum (solgum [27]): 1; Effects Wheat (wheat [28]): 1
COc1ccc2oc(-c3cccc(Oc4cccc(C(F)(F)F)c4)n3)nc2c1 [I-a-4]	0	3	3	0	1	0	5	1	0	0	1	0	1	0	4	3	0	0	0	1	Effects Morning glory (morning glory [18]): 5; Effects Cyperus serotinus Rottb. (Cyperus serotinus Rottb.): 0; Effects Green foxtail (green foxtail [19]): 1; Effects Sugar beat (sugar beat [20]): 4; Effects Corn (corn [21]): 1; Effects Sotton (cotton): 2; Effects Solgum (solgum [22]): 1; Effects Wheat (wheat [23]): 1; Effects Soybean (soybean): 2; Effects Common lambsquarters (common lambsquarters [24]): 5; Effects Sugar beat (sugar beat [25]): 0; Effects Corn (corn [26]): 0; Effects Solgum (solgum [27]): 0
